Where two headings read alike, the source gives them in different places.
Columns and labels:
[1] = tested on: Isolated Cat Papillary Muscle; assay: Test for Cardiotonic Activity in Isolated Cat Papillary Muscle; format: cell-based; settings: Felis catus; for EC50: increase in force of contraction, stimulated at 0.5 Hz, 37° C.; for activation at 100 µM: read-out: % increase (force of contraction)
Protocol: Test for Cardiotonic Activity in Isolated Cat Papillary Muscle
A cat of either sex was anesthetized with Na pentobarbital, 25-30 mg/kg i.v. The heart was rapidly removed and placed in cool Tyrode's solution which had been equilibrated with 95% O2 -5% CO2. The right ventricle was opened by cutting down the sides and around the apex so that the free wall could be folded back on the atriventricular groove. Usually at least three suitably-sized papillary muscles were found (1 mm or less in thickness). Threads were tied around the chordae tendonae and the base of the muscle just above its point of insertion into the ventricular wall. The chordae were cut, and the muscle was removed along with a small button of ventricular wall. If a sufficient number of papillary muscles were not present, trabeculae carnae could also be used. The best ones were usually found inserting just under the valve.
The preparations were mounted in tissue baths containing Tyrode's solution at 37° C. bubbled with 95% O2 -5% CO2. One thread was affixed to a tissue holder incorporating a pair of platinum electrodes and the other thread was attached to a force displacement transducer. Initial tension placed on the preparation was 0.2 g (less for very small muscles). The preparations were stimulated with square-wave pulses, 2-4 msec. in duration and 10% above threshold voltage, at a rate of 0.5 Hz. […] The preparations were then allowed to equilibrate for one hour with frequent changes of the bathing fluid (10-15 min. intervals). The test compound was added to the bath in 0.1 mL of vehicle and incubated with the preparation for 15 min. or until peak effect was attained.
Using this method, the following representative compounds of formula I were effective for increasing the force of contraction of the papillary muscle.

[2] = tested on: Pentobarbital-Induced Cardiac Failure in the Dog; assay: Pentobarbital-induced Cardiac Failure in the Dog; format: in vivo; settings: Canis lupus familiaris, iv, anesthetized dog, read-out: ED50 (dose i.v. to give a 50% increase in dP/dt)
Protocol: Pentobarbital-induced Cardiac Failure in the Dog
A dog of either sex was anesthetized with Na pentobarbital, 30-35 mg/kg i.v. The trachea was intubated and the animal was respired at a rate of 20 breaths/min (stroke volume=15 cc/kg). Both femoral veins were cannulated. One cannula was used for infusion of pentobarbital to induce and maintain failure, the other for injection of test compounds. A cannual was inserted into the aorta via a femoral artery and the cannula was attached to a blood pressure transducer for measurement of systolic, diastolic and mean aortic blood pressure. A Millar pressure-tip catheter was inserted into the other femoral artery and advanced into the left ventricle to record intraventricular pressure and dP/dt. Subdermal needle electrodes were used to record a lead II electrocardiogram and heart rate.
Following a stabilization period of at least 30 min, experimental failure was induced by the i.v. infusion of Na pentobarbital, 0.75 mg/kg/min in 0.2 mL of saline/min, until a 40-50% decrease in peak positive dP/dt was obtained. The failure state was maintained at this level throughout the experiment by continuous infusion of Na pentobarbital, 0.11-0.15 mg/kg/min. Once the maintenance infusion was started, at least 15 min were allowed to elapse before test drugs were administered.
Test compounds were prepared in N saline. Increasingly higher doses were given i.v. at 30 min-1 hr intervals in order to determine a therapeutic (50% increase in dP/dt) to toxic (appearance of arrhythmias) ratio where possible.
Using this method, the following representative compounds of formula I were effective for increasing the cardiac contractility of the heart (the amount of test compound in mg per kg of body weight administered i.v. to give a 50% increase in dP/dt.

`Cc1nc(=O)c(C)c(NCCc2cccn2C)[nH]1` [Example 2, 1,4-Dihydro-2,5-dimethyl-6-[[2-(1-methyl-1H-pyrrol-2-yl)ethyl]amino]-4-pyrimidinone] showed an EC50 [1] of 2.9 µM.
Compound `Cc1nc(O)c(Cl)c(NCc2cccnc2)n1` [Example 3, 5-Chloro-2-methyl-6-[(3-pyridinylmethyl)amino]-4-pyrimidinol] has an EC50 [1] of 1 µM and an ED50 [2] of 0.02 mg/kg.
Compound `Cc1nc(O)c(Br)c(NCc2cccnc2)n1` [Example 1, 5-Bromo-2-methyl-6-[(3-pyridinylmethyl)amino]-4-pyrimidinol] has an EC50 [1] of 2.5 µM and an ED50 [2] of 0.012 mg/kg.
For `Cc1nc(O)c(Cl)c(NCCc2ccccc2)n1` [Example 4, 5-Chloro-2-methyl-6-[(2-phenylethyl)amino]-4-pyrimidinol], the EC50 [1] was 1.5 µM and the ED50 [2] was 0.04 mg/kg.
Compound `Cc1nc(=O)c(C)c(NCc2cccnc2)[nH]1` [Example 5, 1,4-Dihydro-2,5-dimethyl-6-[(3-pyridinylmethyl)amino]-pyrimidine-4-one] has an EC50 [1] of 11 µM and an ED50 [2] of 0.05 mg/kg.
Work on `Cc1nc(O)c(Br)c(NCCO)n1` [Example 16, 5-Bromo-6-[(2-hydroxyethyl)amino]-2-methyl-4-pyrimidinol] yielded an EC50 [1] of 8.2 µM.
`Cc1nc(O)c(C)c(NCc2ccco2)n1` [Example 11, 6-[(2-Furanylmethyl)amino]-2,5-dimethyl-4-pyrimidinol] showed an EC50 [1] of 10 µM.
Compound `Cc1nc(=O)c(F)c(NCc2cccnc2)[nH]1` [Example 6, 5-Fluoro-1,4-dihydro-2-methyl-6-[(3-pyridinylmethyl)amino]-4-pyrimidinone] has an activation at 100 µM ([1]; at 10^-4 M) of 69%.
In the case of `Cc1nc(O)c(C(C)C)c(NCc2cccnc2)n1` [Example 7, 2-Methyl-5-(1-methylethyl)-6-[(3-pyridinylmethyl)amino]-4-pyrimidinol], the EC50 [1] is reported as 7.4 µM and the ED50 [2] is reported as 0.13 mg/kg.
For `Cc1nc(O)c(C)c(NCCc2ccncc2)n1` [Example 8, 2,5-Dimethyl-6-[(2-(4-pyridinyl)ethyl)amino]-4-pyrimidinol], the activation at 100 µM ([1]; at 10^-4 (unit inferred)) was 52%.
In the case of `Cc1nc(O)c(C)c(NCC2CC2)n1` [Example 13, 6-[(Cyclopropylmethyl)amino]-2,5-dimethyl-4-pyrimidinol], the EC50 [1] is reported as 3.7 µM and the ED50 [2] is reported as 0.05 mg/kg.
In the case of `CCNc1nc(C)nc(O)c1C` [Example 12, 6-(Ethylamino)-2,5-dimethyl-4-pyrimidinol], the EC50 [1] is reported as 5 µM and the ED50 [2] is reported as 0.04 mg/kg.
Compound `Cc1nc(O)c(C(C)C)c(NCC2CC2)n1` [Example 17, 6-[(Cyclopropylmethyl)amino]-2-methyl-5-(1-methylethyl)-4-pyrimidinol] has an activation at 100 µM ([1]; at 10^-4 M) of 185% and an ED50 [2] of 0.5 mg/kg.
`CCNc1[nH]c(C)nc(=O)c1Br` [Example 15, 5-Bromo-1,4-dihydro-6-(ethylamino)-2-methyl-4-pyrimidinone] gave an EC50 [1] of 2.8 µM and an ED50 [2] of 0.01 mg/kg.
For `Cc1nc(O)c(Br)c(NCCc2ccncc2)n1` [Example 10, 5-Bromo-2-methyl-6-[[2-(4-pyridinyl)ethyl]amino]-4-pyrimidinol], the EC50 ([1]; unit inferred) was 250 µM.
`CCNc1nc(C)nc(O)c1C(C)C` [Example 14, 6-(Ethylamino)-2-methyl-5-(1-methylethyl)-4-pyrimidinol] gave an activation at 100 µM ([1]; at 10^-4 M) of 86% and an ED50 [2] of 0.04 mg/kg.
`Cc1nc(O)c(Br)c(NCCc2ccccc2)n1` [Example 9, 5-Bromo-2-methyl-6-[(2-phenylethyl)amino]-4-pyrimidinol] was tested, and the EC50 ([1]; unit inferred) was 13 µM and the ED50 [2] was 0.03 mg/kg.
